Reference: patent publication US10017506B2, “ATX modulating agents” (BIOGEN MA INC., priority 2012, dated 2018)

Each compound was assayed against T1, Human ATX protein (Homo sapiens, UniProt Q13822) (assay: ATX biochemical FRET assay with FS-3 substrate). Conditions: FRET substrate FS-3 2 μM, ATX 1.0 μg/mL, 30 minutes pre-incubation, 2 hours at room temperature; read-out: IC50.
T1 construct: made in house
Excerpt: ATX (Autotaxin) is a 125 KDa glycoprotein with lysophospholipase D (LPLD) activity that generates the bioactive lipid lysophosphatidic acid (LPA) from lysophosphatidylcholine (LPC). The ATX biochemical assay utilizes a FRET (fluorescence resonance energy transfer) technology platform. The fluorescence signal of FRET substrate FS-3 is quenched due to intra-molecular FRET of a fluorophore to a non-fluorescing quencher (Ferguson, C. G., et al., Org Lett. 2006 May 11; 8(10): 2023-2026, which is incorporated by reference in its entirety). ATX catalyzes the hydrolysis of the substrate which separates the dabsyl quencher from the fluorescein reporter, which becomes fluorescent. The reaction is monitored by a SpectraMax M5 (Molecular Devices, Sunnyvale, Calif.) with at excitation wavelength 485 nm and emission wavelength […].
Fatty acid free-BSA (Sigma A8806): 10 mg/mL in H2O, stored at 4° C.
2×ATX assay buffer: 100 mM Tris, 280 mM NaCl, 10 mM KCl, 2 mM CaCl2, 2 mM MgCl2, pH 7.4.
Human ATX protein: expressed and purified in house. Stored at −80° C.
Substrate FS-3 (Echelon, L-2000): 100 μg in 77.74 μL H2O (1 mM stock), stored at −20° C.
384-well flat bottom plates—Corning #3575.
Compound dilution—All compounds were provided at 10 mM in 100% DMSO. In the first well, 2 μL of 10 mM compound was added to 78 μL of DMSO (1:40 dilution). In subsequent wells 3-fold dilution (total 10 dilutions) were performed.
1×ATX assay buffer was made up with a final concentration of 1 mg/mL fatty acid free-BSA using 2×ATX assay buffer, 10 mg/ml fatty acid free-BSA and ddH2O.
ATX protein was diluted with 1×ATX assay buffer to a concentration of 1.32 μg/mL (1.32×). 38 μL was added per well to the assay plate. The final concentration of ATX in the reaction as 1.0 μg/mL.
2 μL per well of compounds was transferred to provide the desired concentration. The plate was centrifuged, then incubated at room temperature for 30 minutes on the shaker.
Then, 10 μL was added per well to the assay plate. […] The plate was centrifuged. The plate was kept shaking at room temperature for 2 hours. Because FS-3 substrate is light sensitive, plates were kept covered and protected from light.
Fluorescence was measured using SpectraMax M5 (excitation at 485 nm/emission at 538 nm, top read).

Q: `CCC(N[C@H]1CC[C@@H](C(=O)O)CC1)c1ccc2ccc(O[C@H]3CC[C@@H](C(F)(F)F)CC3)c(C(F)(F)F)c2c1` (stereo partly drawn) [Example 147, cis-4-((1-(8-(trifluoromethyl)-7-((cis-4-(trifluoromethyl)cyclohexyl)oxy)naphthalen-2-yl)propyl)amino)cyclohexanecarboxylic acid] was tested. Which IC50 did it give?
A: ≤ 100 nM

Q: Which IC50 does the source give for `CC[C@H]1CC[C@@H](Oc2ccc3ccc(CN4CCC[C@H](CC(=O)O)C4)cc3c2C(F)(F)F)CC1` [Example 53, 2-((R)-1-((7-((cis-4-ethylcyclohexyl)oxy)-8-(trifluoromethyl)naphthalen-2-yl)methyl)piperidin-3-yl)acetic acid] here?
A: ≤ 500 nM

Q: How did the IC50 turn out when `CC(c1ccc2ccc(O[C@H]3CC[C@@H](C(F)(F)F)CC3)c(C(F)(F)F)c2c1)N1CCC[C@H](CC(=O)O)C1` (stereo partly drawn) [Example 21, ((R)-1-{1-[8-trifluoromethyl-7-(4-trifluoromethyl-cyclohexyloxy)-naphthalen-2-yl]-ethyl}-piperidin-3-yl)-acetic acid] was run?
A: ≤ 250 nM

Q: How did the IC50 turn out when `CC[C@H]1CC[C@@H](Oc2ccc3ccc([C@H](C)N[C@H]4CC[C@@H](C(=O)O)CC4)cc3c2C(F)(F)F)CC1` [Example 135a, cis-4-(((S)-1-(7-((cis-4-ethylcyclohexyl)oxy)-8-(trifluoromethyl)naphthalen-2-yl)ethyl)amino)cyclohexanecarboxylic acid] was run?
A: ≤ 100 nM

Q: With `CC[C@H]1CC[C@@H](Oc2ccc3ccc(C(C)NC4CC(C(=O)O)C4(C)C)cc3c2C(F)(F)F)CC1` (stereo partly drawn) [Example 59, 3-((1-(7-((cis-4-ethylcyclohexyl)oxy)-8-(trifluoromethyl)naphthalen-2-yl)ethyl)amino)-2,2-dimethylcyclobutanecarboxylic acid] as the compound, how does the IC50 read?
A: ≤ 100 nM

Q: Which IC50 does the source give for `CC(N[C@H]1C[C@@H](C(=O)O)C1)c1ccc2ccc(O[C@H]3CC[C@@H](C)CC3)c(C(F)(F)F)c2c1` (stereo partly drawn) [Example 110, cis-3-((1-(7-((cis-4-methylcyclohexyl)oxy)-8-(trifluoromethyl)naphthalen-2-yl)ethyl)amino)cyclobutanecarboxylic acid] here?
A: ≤ 500 nM

Q: Which IC50 does the source give for `CC(C)(C)[C@H]1CC[C@H](Nc2cc3cc(C(=O)N[C@H]4CC[C@H](C(=O)O)CC4)ccc3cn2)CC1` [Example 155, trans-4-(3-((trans-4-(tert-butyl)cyclohexyl)amino)isoquinoline-6-carboxamido)cyclohexanecarboxylic acid] here?
A: ≤ 100 nM

Q: For `O=C(O)C1CCN(Cc2ccc3ccc(O[C@H]4CC[C@@H](C(F)(F)F)CC4)c(C(F)(F)F)c3c2)CC1` [Example 43, 1-((8-(trifluoromethyl)-7-((cis-4-(trifluoromethyl)cyclohexyl)oxy)naphthalen-2-yl)methy 1)piperidine-4-carboxylic acid], which IC50 is on record?
A: ≤ 500 nM

Q: With `CC[C@H]1CC[C@@H](Oc2ccc3ccc([C@@H](C)N[C@@H]4C[C@@H](C(=O)O)C4(C)C)cc3c2C(F)(F)F)CC1` [Example 117c, (1R,3R)-3-(((R)-1-(7-((cis-4-ethylcyclohexyl)oxy)-8-(trifluoromethyl)naphthalen-2-yl)ethyl)amino)-2,2-dimethylcyclobutanecarboxylic acid] as the compound, how does the IC50 read?
A: ≤ 100 nM

Same assay, conditions: IC50, FRET substrate FS-3 2 μM, ATX 1.0 μg/mL, 30 minutes pre-incubation, 2 hours at room temperature

Q: Which IC50 does the source give for `CC(c1ccc2ccc(O[C@H]3CC[C@@H](C(F)(F)F)CC3)c(C#N)c2c1)N1C2CCCC1CC(C(=O)O)C2` (stereo partly drawn) [Example 38, 9-(1-(8-cyano-7-((cis-4-(trifluoromethyl)cyclohexyl)oxy)naphthalen-2-yl)ethyl)-9-azabicyclo[3.3.1]nonane-3-carboxylic acid] here?
A: ≤ 100 nM

Q: With `CC(c1ccc2ccc(O[C@H]3CC[C@@H](C(F)(F)F)CC3)c(C(F)(F)F)c2c1)N1C2CCC1CC(C(=O)O)C2` (stereo partly drawn) [Example 12, 8-{1-[7-(cis-4-trifluoromethyl-cyclohexyloxy)-8-trifluoromethyl-naphthalen-2-yl]-ethyl}-8-aza-bicyclo[3.2.1]octane-3-carboxylic acid] as the compound, how does the IC50 read?
A: ≤ 100 nM

Q: With `CC[C@H]1CC[C@@H](Oc2ccc3ccc(CN4C5CCCC4CC(C(=O)O)C5)cc3c2C#N)CC1` (stereo partly drawn) [Example 71, 9-((8-cyano-7-((cis-4-ethylcyclohexyl)oxy)naphthalen-2-yl)methyl)-9-azabicyclo[3.3.1]nonane-3-carboxylic acid] as the compound, how does the IC50 read?
A: ≤ 100 nM

Q: `CC[C@H]1CC[C@@H](Oc2ccc3ccc(CN4C5CCCC4CC(C(=O)O)C5)cc3c2C(F)(F)F)CC1` (stereo partly drawn) [Example 52, 9-((7-((cis-4-ethylcyclohexyl)oxy)-8-(trifluoromethyl)naphthalen-2-yl)methyl)-9-azabicyclo[3.3.1]nonane-3-carboxylic acid] was tested. Which IC50 did it give?
A: ≤ 100 nM

Q: Which IC50 does the source give for `O=C(O)C1CC2CCCC(C1)N2C(=O)c1ccc2ccc(O[C@H]3CC[C@@H](C(F)(F)F)CC3)c(C(F)(F)F)c2c1` (stereo partly shown) [Example 14, 9-[8-trifluoromethyl-7-(4-trifluoromethyl-cyclohexyloxy)-naphthalene-2-carbonyl]-9-aza-bicyclo[3.3.1]nonane-3-carboxylic acid] here?
A: ≤ 100 nM

Q: `CC[C@H]1CC[C@@H](Oc2ccc3ccc(C(C)N4C5CCCC4CC(C(=O)O)C5)cc3c2Cl)CC1` (stereo partly drawn) [Example 66, 9-(1-(8-chloro-7-((cis-4-ethylcyclohexyl)oxy)naphthalen-2-yl)ethyl)-9-azabicyclo[3.3.1]nonane-3-carboxylic acid] was tested. Which IC50 did it give?
A: ≤ 250 nM

Q: Which IC50 does the source give for `O=C(O)C1CC2CCC(C1)N2Cc1cc2c(C(F)(F)F)c(O[C@H]3CC[C@@H](C(F)(F)F)CC3)ccc2cc1F` (stereo partly drawn) [Example 141, 8-((3-fluoro-8-(trifluoromethyl)-7-((cis-4-(trifluoromethyl)cyclohexyl)oxy)naphthalen-2-yl)methyl)-8-azabicyclo[3.2.1]octane-3-carboxylic acid] here?
A: ≤ 100 nM

Q: How did the IC50 turn out when `CC[C@H]1CC[C@@H](Oc2ccc3ccc(C(C)N4C5CCCC4CC(C(=O)O)C5)cc3c2C(F)(F)F)CC1` (stereo partly drawn) [Example 56, 9-(1-(7-((cis-4-ethylcyclohexyl)oxy)-8-(trifluoromethyl)naphthalen-2-yl)ethyl)-9-azabicyclo[3.3.1]nonane-3-carboxylic acid] was run?
A: ≤ 100 nM

Q: For `CC[C@H]1CC[C@@H](Oc2ccc3ccc(CN4C5CCC4CC(C(=O)O)C5)cc3c2Cl)CC1` (stereo partly drawn) [Example 48, 8-((8-chloro-7-((cis-4-ethylcyclohexyl)oxy)naphthalen-2-yl)methyl)-8-azabicyclo[3.2.1]octane-3-carboxylic acid], which IC50 is on record?
A: ≤ 100 nM

Q: `CCC(c1ccc2ccc(O[C@H]3CC[C@@H](C)CC3)c(Cl)c2c1)N1C2CCC1CC(C(=O)O)C2` (stereo partly drawn) [Example 95, 8-(1-(8-chloro-7-((cis-4-methylcyclohexyl)oxy)naphthalen-2-yl)propyl)-8-azabicyclo[3.2.1]octane-3-carboxylic acid] was tested. Which IC50 did it give?
A: ≤ 500 nM

Q: With `C[C@H]1CC[C@@H](Oc2ccc3ccc(CN4C5CCCC4CC(C(=O)O)C5)cc3c2C(F)(F)F)CC1` (stereo partly drawn) [Example 2, 9-[7-(cis-4-methyl-cyclohexyloxy)-8-trifluoromethyl-naphthalen-2-ylmethyl]-9-aza-bicyclo[3.3.1]nonane-3-carboxylic acid] as the compound, how does the IC50 read?
A: ≤ 100 nM

Q: For `O=C(O)C1CC2CCC(C1)N2Cc1ccc2ccc(O[C@H]3CC[C@@H](C(F)(F)F)CC3)c(Cl)c2c1` (stereo partly drawn) [Example 26, 8-((8-chloro-7-((cis-4-(trifluoromethyl)cyclohexyl)oxy)naphthalen-2-yl)methyl)-8-azabicyclo[3.2.1]octane-3-carboxylic acid], which IC50 is on record?
A: ≤ 250 nM

Q: `CC(c1ccc2ccc(O[C@H]3CC[C@@H](C)CC3)c(C(F)(F)F)c2c1)N1C2CCCC1CC(C(=O)O)C2` (stereo partly drawn) [Example 5, 9-{1-[7-(cis-4-methyl-cyclohexyloxy)-8-trifluoromethyl-naphthalen-2-yl]-ethyl}-9-aza-bicyclo[3.3.1]nonane-3-carboxylic acid] was tested. Which IC50 did it give?
A: ≤ 100 nM
